# Experiments:
# [1] = biological target: T1, Mitogen-activated protein kinase 14 (Homo sapiens, UniProt Q16539); assay: Selectivity interaction (NanoBRET assay (using HEK293T cells)) EUB0001201a MAPK14; format: cell-based, HEK-293T
# [2] = biological target: T1, Mitogen-activated protein kinase 14; assay: Selectivity interaction (Tracer competition assays (Reaction Biology)) EUB0001201a MAPK14
# [3] = biological target: Casein kinase I isoform alpha (Homo sapiens, UniProt P48729); assay: Selectivity interaction (Kinase panel (Reaction Biology)) EUB0001205a CSNK1A1; settings: at 1 µM
# Casein kinase I isoform alpha, sequence (P48729 2-337 limits assumed): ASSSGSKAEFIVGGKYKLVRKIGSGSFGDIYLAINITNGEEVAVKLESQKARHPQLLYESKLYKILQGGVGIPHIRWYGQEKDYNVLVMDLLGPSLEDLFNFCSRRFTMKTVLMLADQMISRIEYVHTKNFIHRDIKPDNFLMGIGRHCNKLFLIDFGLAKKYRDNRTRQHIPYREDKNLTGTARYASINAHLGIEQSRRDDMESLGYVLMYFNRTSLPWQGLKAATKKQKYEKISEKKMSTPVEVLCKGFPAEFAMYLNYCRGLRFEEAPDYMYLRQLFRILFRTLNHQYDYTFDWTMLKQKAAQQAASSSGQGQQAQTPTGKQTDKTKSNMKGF
# [4] = biological target: T2, Casein kinase I isoform epsilon (Homo sapiens, UniProt P49674); assay: Selectivity interaction (Kinase panel (Reaction Biology)) EUB0001205a CSNK1E; settings: at 1 µM
# [5] = biological target: T3, Tyrosine-protein kinase ZAP-70 (Homo sapiens) (UniProt P43403); assay: Selectivity interaction (Kinase panel (Reaction Biology)) EUB0001205a ZAP70; settings: at 1 µM
# T3 sequence (whole entry): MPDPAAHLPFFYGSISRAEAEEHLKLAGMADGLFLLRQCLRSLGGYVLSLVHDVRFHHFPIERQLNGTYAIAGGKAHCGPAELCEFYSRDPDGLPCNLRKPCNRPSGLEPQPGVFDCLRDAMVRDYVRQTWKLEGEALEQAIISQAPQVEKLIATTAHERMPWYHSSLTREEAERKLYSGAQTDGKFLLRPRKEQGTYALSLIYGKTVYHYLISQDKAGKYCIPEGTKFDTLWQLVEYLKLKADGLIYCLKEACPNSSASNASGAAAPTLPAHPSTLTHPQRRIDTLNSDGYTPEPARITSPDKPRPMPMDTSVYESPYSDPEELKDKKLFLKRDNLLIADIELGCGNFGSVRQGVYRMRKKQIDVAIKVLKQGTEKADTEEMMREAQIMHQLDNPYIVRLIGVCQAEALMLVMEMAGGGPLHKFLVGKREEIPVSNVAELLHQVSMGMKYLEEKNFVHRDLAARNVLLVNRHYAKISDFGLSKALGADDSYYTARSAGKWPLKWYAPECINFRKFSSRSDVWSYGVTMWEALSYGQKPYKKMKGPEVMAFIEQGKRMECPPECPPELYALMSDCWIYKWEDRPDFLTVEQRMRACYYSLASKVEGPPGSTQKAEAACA
# [6] = biological target: TRAF2 and NCK-interacting protein kinase (Homo sapiens) (UniProt Q9UKE5); assay: Selectivity interaction (Kinase panel (Reaction Biology)) EUB0001205a TNIK; settings: at 1 µM
# [7] = biological target: T2, Casein kinase I isoform epsilon; assay: Selectivity interaction (Western Blot assay (autophosphorylation of CSNK1E in HEK293T-REx cells)) EUB0001205a CSNK1E; format: cell-based, T-REx-293
# [8] = biological target: T4, Casein kinase I isoform delta (Homo sapiens, UniProt P48730); assay: Selectivity interaction (Western Blot assay (autophosphorylation of CSNK1D in HEK293T-REx cells)) EUB0001205a CSNK1D; format: cell-based, T-REx-293
# [9] = biological target: Casein kinase I isoform alpha-like (Homo sapiens, UniProt Q8N752); assay: Selectivity interaction (Tracer competition assays (Reaction Biology) ) EUB0001205a CSNK1A1L
# [10] = biological target: T4, Casein kinase I isoform delta; assay: Selectivity interaction (Kinase panel (Reaction Biology)) EUB0001205a CSNK1D; settings: at 1 µM
# [11] = biological target: T5, Chromatin remodeling regulator CECR2 (Homo sapiens, UniProt Q9BXF3); assay: Selectivity interaction (BROMOscan) EUB0001074a CECR2
# T5 sequence (Q9BXF3 whole entry): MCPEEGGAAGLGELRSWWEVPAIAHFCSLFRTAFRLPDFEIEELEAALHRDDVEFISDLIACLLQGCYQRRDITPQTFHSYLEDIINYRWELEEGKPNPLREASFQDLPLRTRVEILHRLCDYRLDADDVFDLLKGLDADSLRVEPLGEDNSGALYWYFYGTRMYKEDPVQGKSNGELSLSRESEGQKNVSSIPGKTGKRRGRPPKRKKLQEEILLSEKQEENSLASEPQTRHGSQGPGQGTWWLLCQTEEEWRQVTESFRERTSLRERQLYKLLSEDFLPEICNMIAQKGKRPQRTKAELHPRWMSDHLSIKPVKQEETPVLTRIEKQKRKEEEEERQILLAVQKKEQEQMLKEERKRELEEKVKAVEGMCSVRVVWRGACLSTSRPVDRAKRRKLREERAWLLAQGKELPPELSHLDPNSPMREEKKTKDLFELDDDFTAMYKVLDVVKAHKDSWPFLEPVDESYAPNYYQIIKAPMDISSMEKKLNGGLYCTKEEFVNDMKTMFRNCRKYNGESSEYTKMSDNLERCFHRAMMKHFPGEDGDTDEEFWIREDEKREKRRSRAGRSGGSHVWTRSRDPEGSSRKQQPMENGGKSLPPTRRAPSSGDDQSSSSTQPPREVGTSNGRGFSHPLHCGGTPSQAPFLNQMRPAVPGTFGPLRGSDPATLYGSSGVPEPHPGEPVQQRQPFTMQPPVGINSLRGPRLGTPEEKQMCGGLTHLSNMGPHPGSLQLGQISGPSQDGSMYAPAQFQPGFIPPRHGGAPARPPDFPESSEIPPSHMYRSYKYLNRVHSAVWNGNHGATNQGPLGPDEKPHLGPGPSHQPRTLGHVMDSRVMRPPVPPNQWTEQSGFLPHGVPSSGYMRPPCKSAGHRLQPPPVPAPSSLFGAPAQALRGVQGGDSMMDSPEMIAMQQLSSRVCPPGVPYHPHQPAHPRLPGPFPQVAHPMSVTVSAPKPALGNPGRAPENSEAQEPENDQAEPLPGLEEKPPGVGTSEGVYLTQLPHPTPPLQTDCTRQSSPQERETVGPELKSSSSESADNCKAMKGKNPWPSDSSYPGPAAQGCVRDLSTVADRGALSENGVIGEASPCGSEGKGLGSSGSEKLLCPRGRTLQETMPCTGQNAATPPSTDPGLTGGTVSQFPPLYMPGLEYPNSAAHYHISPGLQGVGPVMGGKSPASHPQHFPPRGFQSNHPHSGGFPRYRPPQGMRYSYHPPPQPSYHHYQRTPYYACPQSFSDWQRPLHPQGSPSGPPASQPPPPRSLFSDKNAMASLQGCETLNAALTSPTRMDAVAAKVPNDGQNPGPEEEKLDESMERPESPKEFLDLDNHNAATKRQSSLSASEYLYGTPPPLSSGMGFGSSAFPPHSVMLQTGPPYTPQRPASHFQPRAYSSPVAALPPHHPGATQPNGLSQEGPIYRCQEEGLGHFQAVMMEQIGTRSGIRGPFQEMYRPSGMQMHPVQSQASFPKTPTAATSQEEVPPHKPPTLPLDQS
# [12] = biological target: T6, Bromodomain-containing protein 4 (Homo sapiens, UniProt O60885); assay: Selectivity interaction (BROMOscan) EUB0001074a BRD4
# [13] = biological target: TATA box-binding protein-associated factor RNA polymerase I subunit A (Homo sapiens, UniProt Q15573); assay: Selectivity interaction (AlphaScreen) EUB0001074a TAF1A
# TATA box-binding protein-associated factor RNA polymerase I subunit A, sequence (Q15573 whole entry, the tested form may be a part): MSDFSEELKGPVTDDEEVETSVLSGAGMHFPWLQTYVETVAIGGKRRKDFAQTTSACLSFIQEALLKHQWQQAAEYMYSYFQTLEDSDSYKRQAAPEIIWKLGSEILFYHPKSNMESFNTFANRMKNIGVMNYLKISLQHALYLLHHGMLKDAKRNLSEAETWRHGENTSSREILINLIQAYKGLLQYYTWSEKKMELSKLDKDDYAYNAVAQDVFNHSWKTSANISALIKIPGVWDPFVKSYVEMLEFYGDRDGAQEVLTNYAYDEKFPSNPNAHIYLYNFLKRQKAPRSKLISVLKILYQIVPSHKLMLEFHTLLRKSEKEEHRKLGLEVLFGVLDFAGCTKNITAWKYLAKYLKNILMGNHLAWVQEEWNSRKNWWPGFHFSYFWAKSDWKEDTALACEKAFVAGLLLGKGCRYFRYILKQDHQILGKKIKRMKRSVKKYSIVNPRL
# [14] = biological target: ATPase family AAA domain-containing protein 2 (Homo sapiens, UniProt Q6PL18); assay: Selectivity interaction (BROMOscan) EUB0001074a ATAD2
# [15] = biological target: T7, Bromodomain-containing protein 9 (Homo sapiens, UniProt Q9H8M2); assay: Selectivity interaction (BROMOscan) EUB0001074a BRD9
# T7 sequence (Q9H8M2 whole entry): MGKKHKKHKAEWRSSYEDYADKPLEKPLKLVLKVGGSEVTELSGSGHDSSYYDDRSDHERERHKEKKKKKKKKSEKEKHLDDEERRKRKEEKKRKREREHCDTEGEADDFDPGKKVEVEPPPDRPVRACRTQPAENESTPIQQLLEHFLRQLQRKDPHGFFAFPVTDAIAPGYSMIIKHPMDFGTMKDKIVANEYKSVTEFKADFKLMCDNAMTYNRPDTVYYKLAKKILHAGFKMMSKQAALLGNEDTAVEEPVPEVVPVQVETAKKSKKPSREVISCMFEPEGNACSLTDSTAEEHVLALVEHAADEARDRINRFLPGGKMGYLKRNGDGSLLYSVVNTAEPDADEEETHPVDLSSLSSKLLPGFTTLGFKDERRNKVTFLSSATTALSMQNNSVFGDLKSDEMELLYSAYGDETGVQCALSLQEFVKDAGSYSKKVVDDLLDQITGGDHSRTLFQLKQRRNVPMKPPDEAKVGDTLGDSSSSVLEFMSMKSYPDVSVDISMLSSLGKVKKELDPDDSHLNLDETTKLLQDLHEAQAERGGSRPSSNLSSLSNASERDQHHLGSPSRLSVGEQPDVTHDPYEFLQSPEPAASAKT
# [16] = biological target: Histone acetyltransferase KAT2B (Homo sapiens, UniProt Q92831); assay: Selectivity interaction (BROMOscan) EUB0001074a KAT2B
# [17] = biological target: Bromodomain adjacent to zinc finger domain protein 2A (Homo sapiens, UniProt Q9UIF9); assay: Selectivity interaction (BROMOscan) EUB0001074a BAZ2A
# [18] = biological target: ATPase family AAA domain-containing protein 2B (Homo sapiens, UniProt Q9ULI0); assay: Selectivity interaction (BROMOscan) EUB0001074a ATAD2B
# [19] = biological target: T7, Bromodomain-containing protein 9; assay: Selectivity interaction (AlphaScreen) EUB0001074a BRD9
# [20] = biological target: SWI/SNF-related matrix-associated actin-dependent regulator of chromatin subfamily A member 2 (Homo sapiens, UniProt P51531); assay: Selectivity interaction (BROMOscan) EUB0001074a SMARCA2
# [21] = biological target: T5, Chromatin remodeling regulator CECR2; assay: Selectivity interaction (AlphaScreen) EUB0001074a CECR2
# [22] = biological target: Nucleosome-remodeling factor subunit BPTF (Homo sapiens, UniProt Q12830); assay: Selectivity interaction (AlphaScreen) EUB0001074a BPTF
# [23] = biological target: Bromodomain-containing protein 7 (Homo sapiens, UniProt Q9NPI1); assay: Selectivity interaction (BROMOscan) EUB0001074a BRD7
# [24] = biological target: CREB-binding protein (Homo sapiens, UniProt Q92793); assay: Selectivity interaction (BROMOscan) EUB0001074a CREBBP
# [25] = biological target: E3 ubiquitin-protein ligase TRIM33 (Homo sapiens, UniProt Q9UPN9); assay: Selectivity interaction (BROMOscan) EUB0001074a TRIM33
# [26] = biological target: Peregrin (Homo sapiens, UniProt P55201); assay: Selectivity interaction (AlphaScreen) EUB0001074a BRPF1
# [27] = biological target: T6, Bromodomain-containing protein 4; assay: Selectivity interaction (AlphaScreen) EUB0001074a BRD4
# [28] = biological target: Dual specificity protein kinase CLK3 (Homo sapiens, UniProt P49761)
# [29] = biological target: SRSF protein kinase 2 (Homo sapiens) (UniProt P78362)
# [30] = biological target: Dual specificity tyrosine-phosphorylation-regulated kinase 1A (Homo sapiens, UniProt Q13627)
# [31] = biological target: T8, SRSF protein kinase 1 (Homo sapiens, UniProt Q96SB4)
# T8 sequence (Q96SB4 whole entry): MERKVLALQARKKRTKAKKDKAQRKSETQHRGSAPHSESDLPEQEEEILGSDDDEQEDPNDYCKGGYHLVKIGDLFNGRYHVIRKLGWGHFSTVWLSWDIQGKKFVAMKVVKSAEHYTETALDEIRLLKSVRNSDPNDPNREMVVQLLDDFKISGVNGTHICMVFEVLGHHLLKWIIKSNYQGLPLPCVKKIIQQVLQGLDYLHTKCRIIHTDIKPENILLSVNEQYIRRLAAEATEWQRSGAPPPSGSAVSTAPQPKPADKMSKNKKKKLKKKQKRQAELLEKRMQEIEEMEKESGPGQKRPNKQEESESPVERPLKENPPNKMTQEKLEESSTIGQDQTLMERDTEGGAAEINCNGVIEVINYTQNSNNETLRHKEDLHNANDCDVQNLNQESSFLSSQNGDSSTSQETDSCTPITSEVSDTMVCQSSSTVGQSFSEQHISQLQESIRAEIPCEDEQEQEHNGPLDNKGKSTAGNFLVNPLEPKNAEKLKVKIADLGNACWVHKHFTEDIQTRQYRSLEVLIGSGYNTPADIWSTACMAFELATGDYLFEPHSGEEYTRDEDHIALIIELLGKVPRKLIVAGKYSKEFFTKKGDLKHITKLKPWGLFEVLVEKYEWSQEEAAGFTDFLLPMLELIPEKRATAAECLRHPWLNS
# [32] = biological target: Dual specificity protein kinase CLK2 (Homo sapiens, UniProt P49760)
# [33] = biological target: T9, Dual specificity tyrosine-phosphorylation-regulated kinase 2 (Homo sapiens, UniProt Q92630)
# T9 sequence (Q92630 whole entry): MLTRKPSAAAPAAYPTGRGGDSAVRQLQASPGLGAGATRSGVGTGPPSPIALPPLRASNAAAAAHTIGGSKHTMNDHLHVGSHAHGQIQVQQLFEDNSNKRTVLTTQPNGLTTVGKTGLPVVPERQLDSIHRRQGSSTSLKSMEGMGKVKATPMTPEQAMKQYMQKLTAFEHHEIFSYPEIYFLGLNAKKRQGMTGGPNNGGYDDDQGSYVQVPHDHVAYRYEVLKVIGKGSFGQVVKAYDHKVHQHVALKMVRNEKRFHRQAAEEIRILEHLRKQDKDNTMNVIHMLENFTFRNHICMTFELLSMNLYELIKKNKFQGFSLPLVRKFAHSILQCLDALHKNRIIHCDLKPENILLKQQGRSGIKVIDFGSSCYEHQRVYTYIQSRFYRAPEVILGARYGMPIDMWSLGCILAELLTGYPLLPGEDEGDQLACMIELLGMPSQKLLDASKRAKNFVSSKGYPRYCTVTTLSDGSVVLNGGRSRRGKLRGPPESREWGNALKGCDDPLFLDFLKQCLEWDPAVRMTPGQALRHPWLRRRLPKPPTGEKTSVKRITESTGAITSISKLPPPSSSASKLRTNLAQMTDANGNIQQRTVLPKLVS
# [34] = biological target: Dual specificity tyrosine-phosphorylation-regulated kinase 1B (Homo sapiens, UniProt Q9Y463)
# [35] = biological target: Dual specificity protein kinase CLK1 (Homo sapiens, UniProt P49759)
# [36] = biological target: T8, SRSF protein kinase 1; settings: at 1 µM
# [37] = biological target: T10, Dual specificity tyrosine-phosphorylation-regulated kinase 3 (Homo sapiens, UniProt O43781)
# T10 sequence (O43781 whole entry): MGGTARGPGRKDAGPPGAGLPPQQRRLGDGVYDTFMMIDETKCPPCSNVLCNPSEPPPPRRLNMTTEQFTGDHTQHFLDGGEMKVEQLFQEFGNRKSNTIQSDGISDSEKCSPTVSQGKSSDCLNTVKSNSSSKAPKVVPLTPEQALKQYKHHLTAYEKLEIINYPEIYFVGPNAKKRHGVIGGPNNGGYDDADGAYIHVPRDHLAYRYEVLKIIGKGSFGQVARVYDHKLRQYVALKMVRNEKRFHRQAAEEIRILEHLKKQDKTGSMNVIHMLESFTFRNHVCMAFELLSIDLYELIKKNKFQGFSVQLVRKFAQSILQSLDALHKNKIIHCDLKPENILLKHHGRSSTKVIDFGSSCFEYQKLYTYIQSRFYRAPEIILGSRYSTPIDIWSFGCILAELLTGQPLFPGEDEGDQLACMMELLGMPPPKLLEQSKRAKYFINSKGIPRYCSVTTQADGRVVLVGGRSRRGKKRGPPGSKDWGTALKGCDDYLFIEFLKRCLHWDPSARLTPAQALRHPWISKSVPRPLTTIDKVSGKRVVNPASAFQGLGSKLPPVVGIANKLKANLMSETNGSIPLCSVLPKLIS
# [38] = biological target: Dual specificity protein kinase CLK4 (Homo sapiens, UniProt Q9HAZ1)
# [39] = biological target: Activin receptor type-1B (Homo sapiens, UniProt P36896); assay: Selectivity interaction (NanoBRET assay (HEK293T cells)) EUB0001465a ACVR1B; format: cell-based, HEK-293T
# Activin receptor type-1B, sequence (P36896 whole entry): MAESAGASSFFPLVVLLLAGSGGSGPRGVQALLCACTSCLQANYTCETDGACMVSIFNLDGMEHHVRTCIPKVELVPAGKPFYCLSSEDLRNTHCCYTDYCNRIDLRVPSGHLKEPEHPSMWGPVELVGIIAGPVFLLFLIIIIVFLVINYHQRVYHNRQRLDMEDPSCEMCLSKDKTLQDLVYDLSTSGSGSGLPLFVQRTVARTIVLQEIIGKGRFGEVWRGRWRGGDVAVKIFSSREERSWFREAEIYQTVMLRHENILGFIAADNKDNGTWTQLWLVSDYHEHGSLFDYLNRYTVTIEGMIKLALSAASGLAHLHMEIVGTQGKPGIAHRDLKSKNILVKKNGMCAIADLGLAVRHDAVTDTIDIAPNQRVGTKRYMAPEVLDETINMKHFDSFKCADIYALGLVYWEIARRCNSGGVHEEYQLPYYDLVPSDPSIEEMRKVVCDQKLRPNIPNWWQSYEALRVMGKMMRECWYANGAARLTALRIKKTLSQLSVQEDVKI
# [40] = biological target: TGF-beta receptor type-1 (Homo sapiens, UniProt P36897); assay: Selectivity interaction (NanoBRET assay (HEK293T cells)) EUB0001465a TGFBR1; format: cell-based, HEK-293T
# TGF-beta receptor type-1, sequence (P36897 whole entry): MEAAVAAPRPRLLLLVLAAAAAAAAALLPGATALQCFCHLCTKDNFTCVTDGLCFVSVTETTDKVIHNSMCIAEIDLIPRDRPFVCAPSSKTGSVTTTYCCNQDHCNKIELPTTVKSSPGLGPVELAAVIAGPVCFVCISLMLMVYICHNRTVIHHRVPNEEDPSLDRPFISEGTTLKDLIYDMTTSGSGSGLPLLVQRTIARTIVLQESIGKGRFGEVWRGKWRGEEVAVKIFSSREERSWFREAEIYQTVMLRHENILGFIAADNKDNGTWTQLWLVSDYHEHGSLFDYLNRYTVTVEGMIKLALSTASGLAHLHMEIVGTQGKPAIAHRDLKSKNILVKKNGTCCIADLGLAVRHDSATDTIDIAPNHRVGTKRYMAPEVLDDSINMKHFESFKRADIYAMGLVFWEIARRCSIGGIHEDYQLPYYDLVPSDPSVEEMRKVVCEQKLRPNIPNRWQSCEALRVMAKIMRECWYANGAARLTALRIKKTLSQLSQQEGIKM
# [41] = biological target: Bone morphogenetic protein receptor type-1B (Homo sapiens, UniProt O00238); assay: Selectivity interaction (NanoBRET assay (HEK293T cells)) EUB0001465a BMPR1B; format: cell-based, HEK-293T
# Bone morphogenetic protein receptor type-1B, sequence (O00238 whole entry): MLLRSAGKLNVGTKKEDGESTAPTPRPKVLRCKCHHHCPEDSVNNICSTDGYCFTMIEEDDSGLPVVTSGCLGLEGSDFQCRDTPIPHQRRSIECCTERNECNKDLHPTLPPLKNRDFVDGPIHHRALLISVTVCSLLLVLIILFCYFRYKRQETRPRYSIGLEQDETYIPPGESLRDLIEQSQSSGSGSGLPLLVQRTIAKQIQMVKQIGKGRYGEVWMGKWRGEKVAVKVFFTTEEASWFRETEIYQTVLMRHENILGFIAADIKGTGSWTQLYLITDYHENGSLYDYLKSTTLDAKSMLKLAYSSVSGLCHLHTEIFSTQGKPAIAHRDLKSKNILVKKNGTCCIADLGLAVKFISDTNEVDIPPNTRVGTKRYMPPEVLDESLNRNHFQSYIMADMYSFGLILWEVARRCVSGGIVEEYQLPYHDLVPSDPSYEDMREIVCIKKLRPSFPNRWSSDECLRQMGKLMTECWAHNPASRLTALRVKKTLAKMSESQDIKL
# [42] = biological target: Bone morphogenetic protein receptor type-1A (Homo sapiens, UniProt P36894); assay: Selectivity interaction (NanoBRET assay (HEK293T cells)) EUB0001465a BMPR1A; format: cell-based, HEK-293T
# T1 sequence (Q16539 whole entry): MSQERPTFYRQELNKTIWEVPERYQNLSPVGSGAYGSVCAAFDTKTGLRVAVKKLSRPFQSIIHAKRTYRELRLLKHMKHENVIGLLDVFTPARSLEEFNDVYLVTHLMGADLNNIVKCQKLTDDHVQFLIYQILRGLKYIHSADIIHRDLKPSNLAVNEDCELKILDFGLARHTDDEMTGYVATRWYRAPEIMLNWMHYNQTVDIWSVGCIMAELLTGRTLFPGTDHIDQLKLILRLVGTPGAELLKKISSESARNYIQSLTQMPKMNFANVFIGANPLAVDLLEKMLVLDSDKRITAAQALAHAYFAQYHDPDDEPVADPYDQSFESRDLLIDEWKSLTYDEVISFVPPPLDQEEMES
structure (smiles),measurement,setting,value
CCc1ccc(-c2ncn(CC3(F)CCN(C)CC3)c2-c2ccnc3[nH]ccc23)nc1,IC50,[1],9.9 µM
same,IC50,[2],> 3 µM
CN1CCC(F)(Cn2cnc(-c3ccc(F)cn3)c2-c2ccnc3[nH]ccc23)CC1,% of inhibition,[3],6%
same,% of inhibition,[4],0%
same,% of inhibition,[5],71%
same,% of inhibition,[6],43%
same,IC50,[7],12.4 µM
same,IC50,[8],0.5 µM
same,IC50,[9],0.52 µM
same,% of inhibition,[10],-6%
CCc1cc2cc(NS(=O)(=O)c3ccc(C#N)cc3)ccc2n(CC)c1=O,IC50,[11],> 100 µM
same,IC50,[12],> 100 µM
same,IC50,[13],> 200 µM
same,IC50,[14],> 100 µM
same,IC50,[15],> 100 µM
same,IC50,[16],> 100 µM
same,IC50,[17],> 100 µM
same,IC50,[18],> 100 µM
same,IC50,[19],> 200 µM
same,IC50,[20],> 77 µM
same,IC50,[21],> 200 µM
same,IC50,[22],> 200 µM
same,IC50,[23],> 100 µM
same,IC50,[24],> 100 µM
same,IC50,[25],> 100 µM
same,IC50,[26],> 200 µM
same,IC50,[27],> 200 µM
CN(c1ncccc1CNc1ccnc(-c2nc3c(F)c(Cl)ccc3[nH]2)n1)S(C)(=O)=O,IC50,[28],> 10 µM
same,dTM,[29],4 K
same,IC50,[30],> 10 µM
same,dTM,[31],9.1 K
same,IC50,[32],> 10 µM
same,IC50,[33],> 10 µM
same,IC50,[34],> 10 µM
same,IC50,[35],> 10 µM
same,% of control,[36],8.76%
same,IC50,[37],> 10 µM
same,IC50,[38],> 10 µM
COc1cc(-c2cncc(-c3ccc(N4CCN(C(C)C)CC4)cc3)c2C)cc(F)c1C(=O)N1CCCC1,IC50,[39],> 0.01 µM
same,IC50,[40],> 0.01 µM
same,IC50,[41],> 0.01 µM
same,IC50,[42],> 0.01 µM

# Source: ChEMBL document CHEMBL5465560, “Selectivity Literature for EUbOPEN Chemogenomic Library” (2024)
